# Reference: US20240309014A1, “MACROCYCLIC COMPOUNDS AND USES THEREOF” (President and Fellows of Harvard College, priority 2017, published 2024)
# How the values were obtained:
# [1] = tested on: OE21, OE33, TE-8, MES-SA, MES-SA/Dx5-RX1 cell lines; assay: In vitro antiproliferative activity, esophageal and uterine cancer cell panel (FIG. 11); assay type: cell-based, human; conditions: 72 hours, CellTiter-Glo; values only in FIG. 11
# Procedure: The in vitro antiproliferative assays for Compound (1) were conducted using a small panel of cancer cell lines including human squamous cell carcinoma of the esophagus (OE21, TE-8), human […] of the esophagus (OE33), and human uterine sarcoma (MES-SA, MES-SA-Dx5-R^X1). All cell lines were cultured in RPMI-1640 medium containing 10% FBS, and penicillin-streptomycin (culture medium), in a 5% CO2 incubator (37° C.). To each well of a 96 well plate (Becton, Dickinson and Company, 353219), 75 μL of cell suspension adjusted to a concentration of 4×10^4 cells/mL with the culture medium was added, and the cells were incubated overnight in a 5% CO2 incubator (37° C.). On the next day, 25 μL of Compound (1) in three-fold dilution series suspended in the culture medium was added to each well, and the resultant was incubated for 72 hours in a 5% CO2 incubator (37° C.). Then, cell viability was determined by CellTiter-Glo® Luminescent Cell Viability Assay (Promega) with 2013 EnVision™ Multilabel Reader (Perkin-Elmer, Wellesley, MA). Value of the wells containing cells without adding the test compounds was defined as 100% and the value of the wells containing no cells was defined as 0%. […] The P-gp susceptibility was calculated as the ratio of the IC50 value in MES-SA-Dx5-R^X1 cells, which overexpress P-gp, to the IC50 value in MES-SA cells.
# [2] = tested on: BJ normal human fibroblasts stimulated with TGF-β; assay: TGF-β-treated BJ cells, in vitro CAF-inducing system; assay type: cell-based
# Procedure: FIG. 19A. BJ cells (normal human […] fibroblasts) were co-cultured with FaDu cells for three days in the absence (vehicle) or presence of A83-01, a potent selective TGF-β-R inhibitor, and the expression of α-SMA was analysed by immunofluorescence staining (red color). Samples were also stained with anti-pan-human cytokeratin (green color) for cancer cell staining and DAPI (blue color) for nuclear staining. FIGS. 19B-19E BJ cells were treated with Compound (1) (0.15 nmol/L in immunofluorescence staining data and indicated concentrations in western blot analysis data) and TGF-β for 2 days. FIGS. 19B-19E. Samples were stained with the indicated antibody (red color) and DAPI (blue color) for nuclear staining. FIG. 19E Western blot images and quantification of the images. […] FIGS. 19G and 19E BJ cells were pretreated with defactinib (1 μmol/L) and TGF-β for 2 days. The lens magnification used was x4 (FIGS. 19A, 19B, 19C, 19G, and 19H) or x40 (FIGS. 19D and 19E).
# FIGS. 20A and 20B. Quantification of immunofluorescence images of BJ cells treated with TGF-β(1 ng/mL) and the indicated concentrations of Compound (1) for α-SMA (FIG. 20A), Phospho-S6-ribosomal protein (Ser235/236) (FIG. 20B). FIG. 20C. Immunofluorescence analysis of BJ cells treated with TGF-β in the absence or presence of dactolisib, a phosphatidylinositol 3 kinase inhibitor. FIG. 20D. Immunofluorescence analysis of phosphorylated Smad⅔ in BJ cells pretreated with Compound (1) (72 hours) after 30 minutes of stimulation with TGF-β. Acetylated-α-tubulin was co-stained to confirm the activity of Compound (1). FIG. 20E. Western blot analysis of Smad⅔ in BJ cells treated with TGF-β and the indicated concentrations of Compound (1). The lens magnification used was x4 (FIG. 20C) or x40 (FIG. 20D).
# The expression of α-SMA was induced in BJ normal human fibroblasts upon co-cultivation with FaDu cells, and the expression was attenuated by treatment with A83-01, a potent selective inhibitor of the TGF-β-receptor (FIG. 19A).
# Under the same experimental conditions, the enhanced formation of focal adhesions, which were detected as punctate structures with an antibody against phosphorylated FAK at tyrosine-397, after stimulation with TGF-β was decreased in BJ cells by treatment with Compound (1) (FIG. 19E). Many signalling complexes are assembled in focal adhesion sites, and those complexes dispatch several downstream signals, including those involved in the PI3K/AKT/mTOR pathway. See, e.g., Sulzmaier et. al. “FAK in cancer: mechanistic findings and clinical applications”, Nature Reviews Cancer 2014, 14, 598-610.
# [3] = tested on: human bladder carcinoma cell line RT112/84; assay: Bladder carcinoma cell line growth inhibition assay, RT112/84; assay type: cell-based; conditions: RT112/84, 72 h, 3 days incubation, CellTiter-Glo 2.0
# Procedure: (§1) In this assay, the growth inhibitory activity of Compound (1) in human bladder carcinoma cell lines RT4, RT112/84, and UM-UC-3 was measured. RT4 and RT112/84 cells were maintained in a RPMI-1640 (FUJIFILM Wako Pure Chemical Corporation, 189-02025) medium containing 10% fetal bovine serum (FBS: SIGMA Life Science, 172012-500ML), and penicillin and streptomycin (FUJIFILM Wako Pure Chemical Corporation, 168-23191) in a 5% CO2 incubator (37° C.). UM-UC-3 cells were maintained in an E-MEM (FUJIFILM Wako Pure Chemical Corporation, 051-07615) medium containing 10% FBS, 1 mM Sodium Pyruvate (FUJIFILM Wako Pure Chemical Corporation, 190-14881), and penicillin and streptomycin in a 5% CO2 incubator (37° C.). To each well of a 96 well plate (Coming, 3904), 90 μL of each cell suspension adjusted to a concentration of 5.55×10^3 cells/mL (RT4 or UM-UC-3) or 3.33×10^4 cells/mL (RT112/84) with the culture medium was added, and the cells were incubated overnight in a 5% CO2 incubator (37° C.). On the next day, 10 μL of Compound (1) in three-fold dilution series suspended in the culture medium was added to each well, and the resultant was incubated for 3 days in a 5% CO2incubator (37° C.). Then, cell viability was determined by CellTiter-Glo® 2.0 Assay (Promega Corporation, G9243) with ARVO-X4 Multimode Plate Reader (Perkin-Elmer, Wellesley, MA). […]
# [4] = tested on: human bladder carcinoma cell line UM-UC-3; assay: Bladder carcinoma cell line growth inhibition assay, UM-UC-3; assay type: cell-based; conditions: UMUC3, 72 h, 3 days incubation, CellTiter-Glo 2.0
# Procedure: as §1
# [5] = tested on: B-16 melanoma cells; conditions: among natural Halichondrin compounds; cited from earlier work
SMILES,antiproliferative activity [1],TGF-β-induced phosphorylation and nuclear localization of Smad⅔ ([2]; BJ cells),enhanced formation of focal adhesions (phosphorylated FAK at tyrosine-397) ([2]; BJ cells after stimulation with TGF-β),activation of the PI3K/AKT/mTOR pathway ([2]; BJ cells treated with TGF-β),"TGF-β-enhanced P3-tubulin expression and microtubule network formation ([2]; BJ cells, co-treatment with TGF-β)","α-SMA induction by TGF-β ([2]; BJ cells, immunofluorescence, 2 days)",IC50 [3],IC50 [4],anti-tumor activities against B-16 melanoma cells in vitro [5]
C=C1C[C@@H]2CC[C@@]34C[C@H]5O[C@H]6[C@@H](O3)[C@H]3O[C@H](CC[C@@H]3O[C@H]6C5O4)CC(=O)O[C@@H]3[C@@H](C)[C@@H]4O[C@@H]5C[C@]6(C[C@@H]7O[C@]8(C[C@H](C)[C@@H]9O[C@H](CN)[C@H](O)C[C@@H]9O8)C[C@H](C)[C@@H]7O6)O[C@@H]5C[C@@H]4O[C@H]3C[C@H]3O[C@@H](CC[C@@H]1O2)C[C@@H](C)C3=C (stereo in doubt) [Compound (1)],potent antiproliferative agent,did not significantly change,decreased,reduce the activation of the PI3K/AKT/mTOR pathway,diminished,interfered with α-SMA induction by TGF-β in BJ cells without growth inhibitory activity,0.0497 nM,0.512 nM,
"C=C1C[C@@H]2CC[C@@]34C[C@H]5O[C@H]6[C@@H](O3)[C@H]3O[C@H](CC[C@@H]3O[C@H]6[C@H]5O4)CC(=O)O[C@@H]3[C@@H](C)[C@@H]4O[C@@H]5C[C@]6(C[C@@H]7O[C@]8(C[C@H](C)[C@@H]9O[C@H]([C@@H](O)C[C@@H](O)CO)C[C@@H]9O8)C[C@H](C)[C@@H]7O6)O[C@@H]5C[C@@H]4O[C@H]3C[C@H]3O[C@@H](CC[C@@H]1O2)C[C@@H](C)C3=C [Halichondrin B, reference compound]",,,,,,,,,strongest anti-tumor activities
